Source: patent US10295551B2, “Development and use of fluorescent probes of unbound bilirubin” (Alan Marc Kleinfeld, priority 2011, dated 2019)

Legend:
[1] = biological target: T1, rI-FABP (SEQ ID NO: 3) variant L24P19 C7 K27A, 14R 18L 27A 38V 60R 73F 106C 115R 117D (Rattus norvegicus, UniProt P02693, A74F/K28A/L39V/L73A/M19L/Q116R/R107C/V61R/Y118D/Y15R); assay: bilirubin binding to L24P19C7 K27A probe; conditions: Table 5, acrylodan
T1 construct: made in house
Experimental: (§1) Also described are analytical/mathematical methods for calibrating and using the bilirubin probes. Bilirubin probes are calibrated to determine their binding affinity for bilirubin (dissociation constant Kd) under conditions, such as temperature, pH and solution composition, that correspond to samples in which it is desired to know the unbound bilirubin concentration. Binding isotherms are performed in aqueous buffer by measuring the change in fluorescence of the bilirubin probes in response to increasing bilirubin concentrations (“titration data”). The set of fluorescence responses at each bilirubin concentration are fitted with an appropriate equation (“calibration equation”) that correctly describes the fluorescence response as a function of the bilirubin concentration, the probe concentration, specific spectroscopic characteristics, and the Kd.

[2] = biological target: T2, rI-FABP (SEQ ID NO: 3) variant L2P14F7-MGCFD, MGCFD - 18G 31M 72A (Rattus norvegicus, UniProt P02693, A2G/G32M/INS2C/L73A/M19G); assay: bilirubin binding to L2P14F7-MGCFD probe; conditions: Table 5, Texas Red C2-Maleimide
T2 construct: made in house
T2 sequence (P02693 with tags, fused parts or gaps M19G/G32M/L73A): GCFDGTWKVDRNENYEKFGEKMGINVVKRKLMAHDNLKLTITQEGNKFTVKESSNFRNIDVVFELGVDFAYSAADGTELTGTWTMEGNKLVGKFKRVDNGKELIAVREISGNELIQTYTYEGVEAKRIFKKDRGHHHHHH
Experimental: as §1

[3] = biological target: T3, rI-FABP (SEQ ID NO: 3) variant L2P14 F7 - K27C, 18G 27C 31M 72A (Rattus norvegicus, UniProt P02693, G32M/K28C/L73A/M19G); assay: bilirubin binding to L2P14F7-K27C probe; conditions: Table 5, acrylodan
T3 construct: made in house
T3 sequence (P02693 with tags, fused parts or gaps M19G/K28C/G32M/L73A): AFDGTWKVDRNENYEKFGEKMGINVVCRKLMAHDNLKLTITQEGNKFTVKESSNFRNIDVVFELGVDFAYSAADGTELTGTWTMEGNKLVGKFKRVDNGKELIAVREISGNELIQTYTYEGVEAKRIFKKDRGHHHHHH
Experimental: as §1

[4] = biological target: T4, rI-FABP (SEQ ID NO: 3) variant L2P14 F7-KR14 - K27C, KR14-18G 27C 31M 72A (Rattus norvegicus, UniProt P02693, G32M/K101R/K126R/K17R/K21R/K28C/K30R/K38R/K47R/K51R/K89R/K8R/K93R/K95R/L73A/M19G); assay: bilirubin binding to L2P14F7-KR14-K27C probe; conditions: Table 5, acrylodan
T4 construct: made in house
T4 sequence (P02693 with tags, fused parts or gaps with the stated changes): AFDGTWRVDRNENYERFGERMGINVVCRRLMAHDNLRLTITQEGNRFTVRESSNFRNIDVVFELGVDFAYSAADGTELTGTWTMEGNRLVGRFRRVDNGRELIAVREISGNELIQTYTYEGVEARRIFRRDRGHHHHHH
Experimental: as §1

[5] = biological target: T5, rI-FABP (SEQ ID NO: 3) variant BL2P2 B6, 14R 18L 31C 38V 60R 73V 106A 115R 117D (Rattus norvegicus, UniProt P02693, A74V/G32C/L39V/L73A/M19L/Q116R/R107A/V61R/Y118D/Y15R); assay: bilirubin binding to BL2P2B6 probe; conditions: Table 5, acrylodan
T5 construct: made in house
T5 sequence (P02693 with tags, fused parts or gaps Y15R/M19L/G32C/L39V/V61R/L73A/A74V/R107A/Q116R/Y118D): as the sequence (P02693 with tags, fused parts or gaps M19G/K28C/G32M/L73A) above, with Y14R, G18L, C27K, M31C, L38V, V60R, A73V, R106A, Q115R, Y117D counted along it
Experimental: as §1

[6] = biological target: T6, rI-FABP (SEQ ID NO: 3) variant L24P19 C7, 14R 18L 27A 38V 60R 73F 106A 115R 117D (Rattus norvegicus, UniProt P02693, A74F/K28A/L39V/L73A/M19L/Q116R/R107A/V61R/Y118D/Y15R); assay: bilirubin binding to L24P19 C7 as listed in Table 6; conditions: Table 6, acrylodan
T6 construct: Residues 27 and 106 disputed: row prints 27A 106A
T6 sequence (P02693 with tags, fused parts or gaps Y15R/M19L/K28A/L39V/V61R/L73A/A74F/R107A/Q116R/Y118D): as the sequence (P02693 with tags, fused parts or gaps M19G/K28C/G32M/L73A) above, with Y14R, G18L, C27A, M31G, L38V, V60R, A73F, R106A, Q115R, Y117D counted along it
Experimental: as §1

[7] = biological target: T7, rI-FABP (SEQ ID NO: 3) variant L24P19 C7 K27K 26C, 14R 18L 26C 38V 60R 73F 106C 115R 117D (Rattus norvegicus, UniProt P02693, A74F/L39V/L73A/M19L/Q116R/R107C/V27C/V61R/Y118D/Y15R); assay: bilirubin binding to L24P19C7 26C probe; conditions: Table 5, acrylodan
T7 construct: made in house
T7 sequence (P02693 with tags, fused parts or gaps Y15R/M19L/V27C/L39V/V61R/L73A/A74F/R107C/Q116R/Y118D): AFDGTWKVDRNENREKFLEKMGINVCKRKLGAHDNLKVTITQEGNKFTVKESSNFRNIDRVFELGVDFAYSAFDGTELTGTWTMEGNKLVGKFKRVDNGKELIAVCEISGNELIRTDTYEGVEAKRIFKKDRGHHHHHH
Experimental: as §1
(§2) . […] The optimal probe performance was obtained with cysteine at positions 25 or 26.

[8] = biological target: T8, rI-FABP (SEQ ID NO: 3) variant L24P19 C7 K27K 30C, 14R 18L 30C 38V 60R 73F 106C 115R 117D (Rattus norvegicus, UniProt P02693, A74F/L31C/L39V/L73A/M19L/Q116R/R107C/V61R/Y118D/Y15R); assay: bilirubin binding to L24P19C7 30C probe; conditions: Table 5, acrylodan
T8 construct: made in house
T8 sequence (P02693 with tags, fused parts or gaps Y15R/M19L/L31C/L39V/V61R/L73A/A74F/R107C/Q116R/Y118D): as the sequence (P02693 with tags, fused parts or gaps Y15R/M19L/V27C/L39V/V61R/L73A/A74F/R107C/Q116R/Y118D) above, with C26V, L30C counted along it
Experimental: as §1, §2

[9] = biological target: T9, rI-FABP (SEQ ID NO: 3) variant L22P19 B9, 38R 72A 73M 106Q 115C (Rattus norvegicus, UniProt P02693, A74M/L39R/L73A/Q116C/R107Q); assay: bilirubin binding to L22P19B9 probe; conditions: Table 5, acrylodan
T9 construct: made in house
T9 sequence (P02693 with tags, fused parts or gaps L39R/L73A/A74M/R107Q/Q116C): as the sequence (P02693 with tags, fused parts or gaps M19G/K28C/G32M/L73A) above, with G18M, C27K, M31G, L38R, A73M, R106Q, Q115C counted along it
Experimental: as §1

[10] = biological target: T10, rI-FABP (SEQ ID NO: 3) variant BL22P1B11, MGI-KR14-14R 18L 25C 27A 38V 60R 73F 106L 115R 117D, SEQ ID NO: 35 (Rattus norvegicus, UniProt P02693, A74F/K101R/K126R/K17R/K21R/K28A/K30R/K38R/K47R/K51R/K89R/K8R/K93R/K95R/L39V/L73A/M19L/Q116R/R107L/V26C/V61R/Y118D/Y15R); format: binding; conditions: Table 5, Alexa Fluor 680 C2-maleimide; read-out: Kd
T10 construct: made in house
T10 sequence (P02693 with tags, fused parts or gaps with the stated changes): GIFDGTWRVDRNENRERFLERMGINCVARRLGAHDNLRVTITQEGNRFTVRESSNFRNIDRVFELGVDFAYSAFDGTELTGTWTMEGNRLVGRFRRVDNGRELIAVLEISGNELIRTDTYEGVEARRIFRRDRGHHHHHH

[11] = biological target: T11, rI-FABP (SEQ ID NO: 3) variant L24P19 C7 K27K 25C, 14R 18L 25C 38V 60R 73F 106C 115R 117D (Rattus norvegicus, UniProt P02693, A74F/L39V/L73A/M19L/Q116R/R107C/V26C/V61R/Y118D/Y15R); assay: bilirubin binding to L24P19C7 25C probe; conditions: Table 5, acrylodan
T11 construct: made in house
T11 sequence (P02693 with tags, fused parts or gaps Y15R/M19L/V26C/L39V/V61R/L73A/A74F/R107C/Q116R/Y118D): as the sequence (P02693 with tags, fused parts or gaps Y15R/M19L/V27C/L39V/V61R/L73A/A74F/R107C/Q116R/Y118D) above, with V25C, C26V counted along it
Experimental: as §1, §2

[12] = biological target: T12, rI-FABP (SEQ ID NO: 3) variant BL22P1 B11 - 74C, MGI - KR14 - 14R 18L 27A 38V 60R 73F 74C 106L 115R 117D (Rattus norvegicus, UniProt P02693, A74F/D75C/K101R/K126R/K17R/K21R/K28A/K30R/K38R/K47R/K51R/K89R/K8R/K93R/K95R/L39V/L73A/M19L/Q116R/R107L/V61R/Y118D/Y15R); format: binding; conditions: Table 5, Alexa Fluor 680 C2-maleimide
T12 construct: 6xHis (C); made in house
T12 sequence (P02693 with tags, fused parts or gaps with the stated changes): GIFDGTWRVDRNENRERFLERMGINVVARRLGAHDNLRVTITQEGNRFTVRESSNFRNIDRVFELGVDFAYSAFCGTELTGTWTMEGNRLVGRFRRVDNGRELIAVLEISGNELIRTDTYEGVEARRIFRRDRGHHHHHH
Experimental: as §1

[13] = biological target: T13, rI-FABP (SEQ ID NO: 3) variant L2P14F7 MGI KR14 K27K, MGI - KR14 - 18G 27K 31M 72A (Rattus norvegicus, UniProt P02693, G32M/K101R/K126R/K17R/K21R/K30R/K38R/K47R/K51R/K89R/K8R/K93R/K95R/L73A/M19G); assay: bilirubin binding to L2P14F7 MGI KR14 K27K probe; conditions: Table 6, acrylodan
T13 construct: made in house
T13 sequence (P02693 with tags, fused parts or gaps with the stated changes): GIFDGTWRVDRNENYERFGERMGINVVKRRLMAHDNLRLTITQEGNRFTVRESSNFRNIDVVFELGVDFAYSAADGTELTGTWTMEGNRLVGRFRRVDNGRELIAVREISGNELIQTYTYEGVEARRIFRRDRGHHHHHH
Experimental: as §1

T1 sequence (P02693 with tags, fused parts or gaps Y15R/M19L/K28A/L39V/V61R/L73A/A74F/R107C/Q116R/Y118D): as the sequence (P02693 with tags, fused parts or gaps Y15R/M19L/V27C/L39V/V61R/L73A/A74F/R107C/Q116R/Y118D) above, with C26V, K27A counted along it

C=CC1=C(C)/C(=C/c2[nH]c(Cc3[nH]c(/C=C4\NC(=O)C(C)=C4C=C)c(C)c3CCC(=O)O)c(CCC(=O)O)c2C)NC1=O [bilirubin]
Kd [1]: 21 nM
Kd [2]: 400 nM
Kd [3]: 250 nM
Kd [4]: 530 nM
Kd [5]: 137 nM
Kd [6]: 33 nM
Kd [7]: 19 nM
Kd [8]: 26 nM
Kd [9]: 400 nM
Kd [10]: 110 nM
Kd [11]: 19 nM
Kd [12]: 160 nM
Kd [13]: 84 nM
